Results from ChEMBL document CHEMBL2176876, “Discovery of potent and selective pyrazolopyrimidine janus kinase 2 inhibitors” (J Med Chem, 2012).

What was measured:
[1] = Volume of distribution at steady state in Sprague-Dawley rat at 0.1 to 1 mg/kg, iv; format: ADME, organism-based; design: dose 0.1-1 mg/kg, route intravenous; details: in vivo, read-out: Vdss
[2] = Oral bioavailability in Sprague-Dawley rat at 5 mg/kg; format: ADME, organism-based; details: in vivo
[3] = Permeability from apical to basolateral side in MDCK cells; format: ADME, cell-based, Canis lupus familiaris; details: dog, read-out: permeability
[4] = Oral bioavailability in Balb/C mouse at 5 mg/kg; format: ADME, organism-based; details: in vivo
[5] = Volume of distribution at steady state in Balb/C mouse at 0.5 mg/kg, iv; format: ADME, organism-based; design: dose 0.5 mg/kg, route intravenous; details: in vivo, read-out: Vdss

| Vd [1] | bioavailability [2] | Papp A→B [3] | bioavailability [4] | Vd [5] | Structure (SMILES) |
| --- | --- | --- | --- | --- | --- |
| 0.293 L/kg | 44% | 10.5 ×10⁻⁶ cm/s |  |  | Cc1cc(NC(=O)c2cnn3cccnc23)n(-c2cccc(Cl)c2)n1 |
| 0.843 L/kg | 30% | 15.1 ×10⁻⁶ cm/s |  |  | CNc1ccn2ncc(C(=O)Nc3cc(C)nn3-c3cccc(Cl)c3)c2n1 |

More lines, now with the values behind:

| Structure (SMILES) | Vd [1] | bioavailability [2] | Papp A→B [3] | bioavailability [4] | Vd [5] |
| --- | --- | --- | --- | --- | --- |
| Cn1cc(NC(=O)c2cnn3cccnc23)c(-c2cccc(Cl)c2)n1 | 0.349 L/kg | 124% |  |  |  |
| Cn1cc(NC(=O)c2cnn3ccc(N)nc23)c(-c2cc(Cl)ccc2Cl)n1 | 1.08 L/kg | 63% | 10.5 ×10⁻⁶ cm/s |  |  |
| Cc1cc(NC(=O)c2cnn3ccc(N)nc23)n(-c2cccc(Cl)c2)n1 | 0.185 L/kg | 1% | 8.4 ×10⁻⁶ cm/s | 8.6% | 0.27 L/kg |
| Cn1cc(NC(=O)c2cnn3ccc(N)nc23)c(-c2cccc(Cl)c2)n1 | 0.355 L/kg | 7% |  |  |  |
